The values below come from patent US20240246902A1, “PRODRUGS OF 6-DIAZO-5-OXO-L-NORLEUCINE” (THE JOHNS HOPKINS UNIVERSITY, priority 2021, published 2024).

Series [1] can be described thus: Metabolic stability in swine jejunum (gut) tissue homogenate. Format: in vitro ADME. Conditions: prodrug 20 μM, 37° C. The method, boiled down:
(§1)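 Freshly collected swine jejunum or liver was sonicated in 9 volumes of 0.1 M potassium phosphate buffer on ice. Prodrugs at 20 μM (0.2% DMSO, triplicate) were incubated at 37° C for 0, 30 and 60 min. Samples were quenched in methanol with losartan internal standard, and prodrug disappearance was followed by LC-MS/MS using analyte/IS peak area ratios.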

Series [2] is described as follows: Metabolic stability in swine liver tissue homogenate. The settings on record: prodrug 20 μM, 37° C. The class given is in vitro ADME. The procedure, abridged: as §1
The subject of a further series is P493B lymphoma cells. Put plainly: Human tumor cell-to-plasma partitioning assay (DON release in P493B cells). Conditions: 10 million cells/mL, prodrug 20 μM, 37° C., 1 h.
Series [3] is described as follows: Plasma stability, rat plasma. Format: in vitro ADME. The settings on record: RP = Rat Plasma.
The nature of series [4]: Plasma stability, plasma from CES1KO mice. Conditions: CES1KO = Mouse Plasma from CES1KO mice.
Series [5] can be described thus: Plasma stability, pig plasma. Format: in vitro ADME. Conditions: PP = Pig Plasma.
The conditions of series [6]: not told.
The conditions of series [7]: mouse, 1 h.

Each structure is given as a SMILES string. ≈ marks a conversion by molar mass, not a printed value. Read-outs that look alike come from different tables or passages of the source.

Protocol for P493B lymphoma cells: The human plasma-to-tumor cell partitioning assays were conducted using P493B lymphoma following our previously reported method. […] In brief, cells were cultured in 150 cm^2 T-flasks (Falcon™, USA, Cat. #08-772-48) with RPMI Medium 1640 medium 1× containing L-glutamine (RPMI-1640, Corning®, USA, Cat. #10-040-CV), supplemented with 10% v/v Fetal Bovine Serum (FBS, Gibco™, USA, Cat. #26140079), and 1% v/v antimycotic/antibiotic (Gibco™, USA, Cat. #15240062). Cells were grown at 37° C., in a humidified atmosphere with 5% CO2. Cells were harvested after achieving>80% confluency and centrifuged at 200×g for 5 min at 25° C. The obtained cell pellet was re-suspended in 20 mL of Dulbecco's phosphate-buffered saline (DPBS, Gibco™, USA, Cat. #14-190-144) maintained at 37° C. and cell count was determined using an automated cell counter (Bio-Rad, USA). […] Both plasma and cell pellet fractions were analyzed for intact prodrug and DON levels.
Frozen plasma and cell pellets were thawed on wet ice. […] After centrifugation, 100 μL of the supernatant was diluted with 400 μL of water, and analyzed in LC-MS/MS. […]
The underivatized supernatants/derivatized samples were analyzed on a LC-MS/MS system consisting of Dionex ultra high-performance LC system hyphenated with Q Exactive Focus Orbitrap mass spectrometer (Thermo Fisher Scientific Inc., Waltham, MA). […]

As for `CN(C)CC(=O)N[C@@H](CCC(=O)C=[N+]=[N-])C(=O)OC(C)(C)C` [Compound 5h, tert-Butyl (S)-6-diazo-2-(2-(dimethylamino)acetamido)-5-oxohexanoate], the “Gut Stability (% remaining at 60 min)” value in [1] was determined as 100 ± 1%. In addition, the “Liver stability (% remaining at 60 min)” value in [2] was found to be 93 ± 1%. The compound also displayed an Efflux in the series “Efflux” of 2. Also, the “P493B cells (DON release; nmol/g)” value in the series with P493B lymphoma cells is reported as “Undetectable”.
On to `CC(=O)N[C@@H](CCC(=O)C=[N+]=[N-])C(=O)OC(C)C` [Compound 5a, Isopropyl (S)-2-acetamido-6-diazo-5-oxohexanoate], for which the “Gut Stability (% remaining at 60 min)” value in series [1] was determined as 76 ± 0%. In series [2], the “Liver stability (% remaining at 60 min)” value is 23 ± 0%. Further, the “Plasma Stability (% remaining at 60 min)” value was 0 ± 0 (RP) % in series [3], 89 ± 2 (ces1KO) % in series [4] and 105 ± 1 (PP) % in series [5].
`CC(C)(C)OC(=O)[C@H](CCC(=O)C=[N+]=[N-])NC(=O)[C@H](Cc1c[nH]c2ccccc12)NC(=O)C12CCN(CC1)CC2` [Compound 11d, tert-Butyl (S)-2-((S)-3-(1H-indol-3-yl)-2-(quinuclidine-4-carboxamido)propanamido)-6-diazo-5-oxohexanoate] returned an Efflux in series [6] of 2. The solubility in the series “physchem” is 4300 µg/mL (≈ 7.81 mM).
Consider `Cn1cc(C[C@H](NC(=O)C23CCN(CC2)CC3)C(=O)N[C@@H](CCC(=O)C=[N+]=[N-])C(=O)OC(C)(C)C)c2ccccc21` [Compound 12b, tert-Butyl (S)-6-diazo-2-((S)-3-(1-methyl-1H-indol-3-yl)-2-(quinuclidine-4-carboxamido)propanamido)-5-oxohexanoate], for which, in series [7], the “Plasma Stability (% remaining at 60 min)” value was 92 ± 1 (MP) %. In [6], this compound had an Efflux of 3.48. In the series “physchem”, this compound registered a solubility of 8800 µg/mL (≈ 15.6 mM).
